Tests used:
[1] = test system: AFD1 cells; assay: Attachment / plating efficiency on surface modified plate 4 without feeder cells or adlayer; type: cell-based; details: surface modified plate 4, MEF conditioned media
Method: The pluripotent stem cell line AFD1, was maintained in MEF conditioned media on Nunclon Delta™ plates treated with a 1:30 dilution of growth factor reduced MATRIGEL™ prior to study. Cells were dissociated from the surface for passage by 1 mg/ml dispase dissociation. AFD1 cells were then seeded onto untreated wells of surface modified plate 4 (6-well format). In parallel, AFD1 cells were also plated onto Nunclon Delta™ plates treated with 1:30 dilution of growth factor reduced MATRIGEL™ to provide as positive controls. In all treatments cells were maintained in MEF conditioned media. AFD1 cells seeded onto surface modified plate 4 did attach, however the attachment efficiency was much lower than on control plates (FIG. 11). […] Cells were thereafter maintained in a constant 10 μM Y-27632 concentration or a reduced 1 μM concentration of H1152-glycyl, respectively, with daily media change.

[2] = test system: AFD1 cells; assay: qRT-PCR gene expression after two passages on surface modified plate 4 with Rho kinase inhibitor; type: cell-based; details: AFD1 passaged twice on modified surface 4 versus control plates
Method: Cells were passaged twice on surface modified plate 4 in the presence of either Y-27632 or H1152-glycyl and were tested for the expression of genes associated with pluripotency by qRT-PCR (FIG. 12). Expression of genes associated with and required for pluripotency (OCT4, NANOG, SOX2, TERT, and CRIPTO/TDGF) was maintained in AFD1 cells grown on modified surface 4 versus cells grown on control plates. […] This may have been due to increased expression of NANOG, which inhibits differentiation by suppressing expression of extra-embryonic ectoderm or trophoblast associated genes. Additionally, this decrease in expression of extra-embryonic ectoderm or trophoblast associated genes could occur through differential adhesion and proliferation of cells more pluripotent, and less differentiated, on modified surface 4 versus control plates.

| SMILES | plating efficiency of the cells ([1]; 3 μM for the first 24 hours in culture) | Expression of genes associated with and required for pluripotency (OCT4, NANOG, SOX2, TERT, and CRIPTO/TDGF) [2] | relative expression of AFP, HAND2, and GATA2 (spontaneous differentiation genes) [2] | plating efficiency of the cells ([1]; 10 μM for the first 24 hours in culture) |
| --- | --- | --- | --- | --- |
| Cc1cncc2cccc(S(=O)(=O)N3CCCN(C(=O)CN)C[C@@H]3C)c12.Cl.Cl [Clone H1152-glycyl, (S)-(+)-4-Glycyl-2-methyl-1-[(4-methyl-5-isoquinolinyl)sulfonyl]hexahydro-1H-1,4-diazepine dihydrochloride] | significantly increased | maintained | decreased significantly | – |
| C[C@@H](N)[C@H]1CC[C@H](C(=O)Nc2ccncc2)CC1 [Clone Y-27632] | – | maintained | decreased significantly | significantly increased |
